Data as given in patent US6620811B2, “Isonicotin- and nicotinamide derivatives of benzothiazoles” (Hoffmann-La Roche Inc., priority 2001, dated 2003).

biological target: T1, human adenosine A2A receptor (Homo sapiens, UniProt P29274); experiment: Human adenosine A2A receptor [3H]-SCH-583261 binding assay (SPA, CHO cell membranes); conditions: [3H]-SCH-583261 1 nM; membranes of CHO cells expressing the recombinant receptor; Ki by Cheng-Prussoff equation
T1 construct: expressed in transfected cells; host or cells: CHO cells, semliki forest virus expression system; membrane preparation
T1 sequence (P29274 whole entry): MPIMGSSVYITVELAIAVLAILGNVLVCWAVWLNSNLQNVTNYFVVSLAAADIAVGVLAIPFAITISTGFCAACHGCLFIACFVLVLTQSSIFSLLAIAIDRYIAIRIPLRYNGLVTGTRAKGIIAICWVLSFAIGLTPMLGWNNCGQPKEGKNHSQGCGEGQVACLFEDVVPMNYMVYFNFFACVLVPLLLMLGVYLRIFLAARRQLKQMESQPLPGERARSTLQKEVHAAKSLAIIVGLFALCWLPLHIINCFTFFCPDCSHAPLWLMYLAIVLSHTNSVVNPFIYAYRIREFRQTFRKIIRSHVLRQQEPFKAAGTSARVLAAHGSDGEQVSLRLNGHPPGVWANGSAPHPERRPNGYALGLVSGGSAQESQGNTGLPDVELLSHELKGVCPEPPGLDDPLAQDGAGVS
Experimental: Human Adenosine A2A Receptor
The human adenosine A2A receptor was recombinantly expressed in chinese hamster ovary (CHO) cells using the semliki forest virus expression system. Cells were harvested, washed twice by centrifugation, homogenised and again washed by centrifugation. The final washed membrane pellet was suspended in a Tris (50 mM) buffer containing 120 mM NaCl, 5 mM KCl, 2 mM CaCl2 and 10 mM MgCl2 (pH 7.4) (buffer A). The [^3H]-SCH-583261 (Dionisotti et al., 1997, Br J Pharmacol 121, 353; 1 nM) binding assay was carried out in 96-well plates in the presence of 2.5 μg of membrane protein, 0.5 mg of Ysi-poly-1-lysine SPA beads and 0.1 U adenosine deaminiase in a final volume of 200 μl of buffer A. Non-specific binding was defined using xainthine amine congener (XAC; 2 μM). Compounds were tested at 10 concentrations from 10 μM-0.3 nM. All assays were conducted in duplicate and repeated at least two times. Assay plates were incubated for 1 hour at room temperature before centrifugation and then bound ligand determined using a Packard Topcount scintillation counter. IC50 values were calculated using a non-linear curve fitting program and Ki values calculated using the Cheng-Prussoff equation.

| hA2 (pKi) | SMILES |
| --- | --- |
| 8.9 | COc1ccc(N2CCCCC2)c2sc(NC(=O)c3ccnc(CN4CCCC4)c3)nc12 [Example 70, N-(4-Methoxy-7-piperidin-1-yl-benzothiazol-2-yl)-2-pyrrolidin-1-yl-methyl-isonicotinamide] |
| 8.7 | COc1ccc(N2CCCCC2)c2sc(NC(=O)c3ccnc(CN4CCOCC4)c3)nc12 [Example 71, N-(4-Methoxy-7-piperidin-1-yl-benzothiazol-2-yl)-2-morpholin-4-yl-methyl-isonicotinamide] |

same assay, conditions: [3H]-SCH-583261 1 nM; membranes of CHO cells expressing the recombinant receptor; Ki by Cheng-Prussoff equation; read-out: hA2 (pKi) (converted)

| Ki [nM] | SMILES |
| --- | --- |
| 1.02 | COc1ccc(N2CCOCC2)c2sc(NC(=O)c3ccc(NCc4ccccn4)nc3)nc12 [Example 40, N-(4-Methoxy-7-morpholin-4-yl-benzothiazol-2-yl)-6-[(pyridin-2-ylmethyl)-amino]-nicotinamide] |
| 1 | COc1ccc(N2CCOCC2)c2sc(NC(=O)c3ccnc(N4C[C@@H]5C[C@H]4CO5)c3)nc12 [Example 31, N-(4-Methoxy-7-morpholin-4-yl-benzothiazol-2-yl)-2-{(1S,4S)-2-oxa-5-aza-bicyclo[2.2.1]hept-5-yl}-isonicotinamide] |
| 1.62 | COc1ccc(N2CCOCC2)c2sc(NC(=O)c3ccnc(N(C)Cc4ccccc4)c3)nc12 [Example 96, 2-(Benzyl-methyl-amino)-N-(4-methoxy-7-morpholin-4-yl-benzothiazol-2-yl)-isonicotinamide] |
| 2.63 | COc1cc(C(=O)Nc2nc3c(OC)ccc(N4CCOCC4)c3s2)ccn1 [Example 5, 2-Methoxy-N-(4-methoxy-7-morpholin-4-yl-benzothiazol-2-yl)-isonicotinamide] |
| 2.95 | COc1ccc(N2CCOCC2)c2sc(NC(=O)c3ccnc(OC4CCCC4)c3)nc12 [Example 85, 2-Cyclopentyloxy-N-(4-methoxy-7-morpholin-4-yl-benzothiazol-2-yl)-isonicotinamide] |
| 2 | CNCc1cc(C(=O)Nc2nc3c(OC)ccc(N4CCOCC4)c3s2)ccn1 [Example 58, N-(4-Methoxy-7-morpholin-4-yl-benzothiazol-2-yl)-2-methylaminomethyl-isonicotinamide] |
| 0.501 | COc1ccc(N2CCOCC2)c2sc(NC(=O)c3ccnc(OCCN(C)C)c3)nc12 [Example 86, 2-(2-Dimethylamino-ethoxy)-N-(4-methoxy-7-morpholin-4-yl-benzothiazol-2-yl)-isonicotinamide] |
| 1.91 | COc1ccc(N2CCOCC2)c2sc(NC(=O)c3ccnc(NCCNC(C)=O)c3)nc12 [Example 15, 2-(2-Acetylamino-ethylamino)-N-(4-methoxy-7-morpholin-4-yl-benzothiazol-2-yl)-isonicotinamide] |
| 1.55 | COc1ccc(N2CCOCC2)c2sc(NC(=O)c3ccnc(NCc4ccccn4)c3)nc12 [Example 13, N-(4-Methoxy-7-morpholin-4-yl-benzothiazol-2-yl)-2-[(pyridin-2-ylmethyl)-amino]-isonicotinamide] |
| 1.91 | COc1ccc(N2CCOCC2)c2sc(NC(=O)c3ccnc(N4CC(OC)C4)c3)nc12 [Example 75, 2-(3-Methoxy-azetidin-1-yl)-N-(4-methoxy-7-morpholin-4-yl-benzothiazol-2-yl)-isonicotinamide] |
| 1.91 | COc1ccc(N2CCOCC2)c2sc(NC(=O)c3ccnc(N(C)C4CCCCC4)c3)nc12 [Example 95, 2-(Cyclohexyl-methyl-amino)-N-(4-methoxy-7-morpholin-4-yl-benzothiazol-2-yl)-isonicotinamide] |
| 0.603 | COc1ccc(N2CCOCC2)c2sc(NC(=O)c3ccnc(N(C)CCN(C)C)c3)nc12 [Example 99, 2-[(2-Dimethylamino-ethyl)-methyl-amino]-N-(4-methoxy-7-morpholin-4-yl-benzothiazol-2-yl)-isonicotinamide] |
| 0.724 | COc1ccc(N2CCOCC2)c2sc(NC(=O)c3ccnc(N4CCN(C)CC4)c3)nc12 [Example 10, N-(4-Methoxy-7-morpholin-4-yl-benzothiazol-2-yl)-2-(4-methyl-piperazin-1-yl)-isonicotinamide] |
| 2.4 | CCSc1cc(C(=O)Nc2nc3c(OC)ccc(N4CCOCC4)c3s2)ccn1 [Example 81, 2-Ethylsulfanyl-N-(4-methoxy-7-morpholin-4-yl-benzothiazol-2-yl)-isonicotinamide] |
| 3.02 | COc1ccc(N2CCOCC2)c2sc(NC(=O)c3ccc(OC(C)C)nc3)nc12 [Example 44, 6-Isopropoxy-N-(4-methoxy-7-morpholin-4-yl-benzothiazol-2-yl)-nicotinamide] |
| 1.58 | COc1ccc(N2CCOCC2)c2sc(NC(=O)c3ccnc(CN4CCOCC4)c3)nc12 [Example 56, N-(4-Methoxy-7-morpholin-4-yl-benzothiazol-2-yl)-2-morpholin-4-ylmethyl-isonicotinamide] |
| 1.15 | COc1ccc(N2CCOCC2)c2sc(NC(=O)c3ccnc(OCc4ccccn4)c3)nc12 [Example 6, N-(4-Methoxy-7-morpholin-4-yl-benzothiazol-2-yl)-2-(pyridin-2-ylmethoxy)-isonicotinamide] |

| Ki [nM] | SMILES |
| --- | --- |
| 3.16 | COCCOc1cc(C(=O)Nc2nc3c(OC)ccc(N4CCOCC4)c3s2)ccn1 [Example 1, 2-(2-Methoxy-ethoxy)-N-(4-methoxy-7-morpholin-4-yl-benzothiazol-2-yl)-isonicotinamide] |
| 1.2 | CCCN(C)c1cc(C(=O)Nc2nc3c(OC)ccc(N4CCOCC4)c3s2)ccn1 [Example 94, N-(4-Methoxy-7-morpholin-4-yl-benzothiazol-2-yl)-2-(methyl-propyl-amino)-isonicotinamide] |
| 2.24 | COc1ccc(N2CCOCC2)c2sc(NC(=O)c3ccnc(C4CCCCC4)c3)nc12 [Example 24, 2-Cyclohexyl-N-(4-methoxy-7-morpholin-4-yl-benzothiazol-2-yl)-isonicotinamide] |
| 1.74 | COc1ccc(N2CCOCC2)c2sc(NC(=O)c3ccnc(NCc4ccccc4)c3)nc12 [Example 83, 2-Benzylamino-N-(4-methoxy-7-morpholin-4-yl-benzothiazol-2-yl)-isonicotinamide] |
| 2.09 | COc1ccc(N2CCOCC2)c2sc(NC(=O)c3ccnc(SC)c3)nc12 [Example 80, N-(4-Methoxy-7-morpholin-4-yl-benzothiazol-2-yl)-2-methylsulfanyl-isonicotinamide] |
| 1.74 | COc1ccc(N2CCOCC2)c2sc(NC(=O)c3ccnc(NC4CCC4)c3)nc12 [Example 90, 2-Cyclobutylamino-N-(4-methoxy-7-morpholin-4-yl-benzothiazol-2-yl)-isonicotinamide] |
| 3.16 | COC(=O)N(C)Cc1cc(C(=O)Nc2nc3c(OC)ccc(N4CCOCC4)c3s2)ccn1 [Example 65, [4-(4-Methoxy-7-morpholin-4-yl-benzothiazol-2-yl-carbamoyl)-pyridin-2-ylmethyl]-methyl-carbamic Acid Methyl Ester] |
| 2.51 | COCCNCc1cc(C(=O)Nc2nc3c(OC)ccc(N4CCOCC4)c3s2)ccn1 [Example 47, 2-[(2-Methoxy-ethylamino)-methyl]-N-(4-methoxy-7-morpholin-4-yl-benzothiazol-2-yl)-isonicotinamide] |
| 1.58 | CCCCNCc1cc(C(=O)Nc2nc3c(OC)ccc(N4CCOCC4)c3s2)ccn1 [Example 52, 2-Butylaminomethyl-N-(4-methoxy-7-morpholin-4-yl-benzothiazol-2-yl)-isonicotinamide] |
| 2.34 | COc1ccc(N2CCOCC2)c2sc(NC(=O)c3ccnc(OCCN4CCCC4=O)c3)nc12 [Example 17, N-(4-Methoxy-7-morpholin-4-yl-benzothiazol-2-yl)-2-[2-(2-oxo-pyrrolidin-1-yl)-ethoxy]-isonicotinamide] |
| 1.07 | CCCNc1cc(C(=O)Nc2nc3c(OC)ccc(N4CCOCC4)c3s2)ccn1 [Example 93, N-(4-Methoxy-7-morpholin-4-yl-benzothiazol-2-yl)-2-propylamino-isonicotinamide] |
| 2.88 | COc1ccc(N2CCOCC2)c2sc(NC(=O)c3ccnc(OC(C)C)c3)nc12 [Example 77, 2-Isopropoxy-N-(4-methoxy-7-morpholin-4-yl-benzothiazol-2-yl)-isonicotinamide] |
| 1.78 | COc1ccc(N2CCOCC2)c2sc(NC(=O)c3ccnc(NCCc4ccccn4)c3)nc12 [Example 8, N-(4-Methoxy-7-morpholin-4-yl-benzothiazol-2-yl)-2-(2-pyridin-2-yl-ethylamino)-isonicotinamide] |
| 1.55 | COc1ccc(N2CCCCC2)c2sc(NC(=O)c3ccnc(N4CCN(C)CC4)c3)nc12 [Example 100, N-(4-Methoxy-7-piperidin-1-yl-benzothiazol-2-yl)-2-(4-methyl-piperazin-1-yl)-isonicotinamide] |
| 2 | COc1ccc(N2CCOCC2)c2sc(NC(=O)c3ccnc(CN4CCCC4)c3)nc12 [Example 54, N-(4-Methoxy-7-morpholin-4-yl-benzothiazol-2-yl)-2-pyrrolidin-1-ylmethyl-isonicotinamide] |
| 2.63 | COc1ccc(N2CCOCC2)c2sc(NC(=O)c3ccnc(OCc4ccccc4)c3)nc12 [Example 4, 2-Benzyloxy-N-(4-methoxy-7-morpholin-4-yl-benzothiazol-2-yl)-isonicotinamide] |
| 1.48 | COc1ccc(N2CCOCC2)c2sc(NC(=O)c3ccnc(NC4CCCC4)c3)nc12 [Example 89, 2-Cyclopentylamino-N-(4-methoxy-7-morpholin-4-yl-benzothiazol-2-yl)-isonicotinamide] |
